Results on four compounds are retold here after publication PMC8003416, “Modulation of Human Phenylalanine Hydroxylase by 3-Hydroxyquinolin-2(1H)-One Derivatives” (Biomolecules, 2021).

For assay [1], the target named is T1, hPAH non-heme ferric center (Homo sapiens, UniProt P00439).
T1 construct: Recombinant full-length wild-type (WT) hPAH was expressed in E. coli Top10 cells in fusion with a hexa-histidyl peptide; made in house; host or cells: E. coli Top10
T1 sequence (P00439 1-452): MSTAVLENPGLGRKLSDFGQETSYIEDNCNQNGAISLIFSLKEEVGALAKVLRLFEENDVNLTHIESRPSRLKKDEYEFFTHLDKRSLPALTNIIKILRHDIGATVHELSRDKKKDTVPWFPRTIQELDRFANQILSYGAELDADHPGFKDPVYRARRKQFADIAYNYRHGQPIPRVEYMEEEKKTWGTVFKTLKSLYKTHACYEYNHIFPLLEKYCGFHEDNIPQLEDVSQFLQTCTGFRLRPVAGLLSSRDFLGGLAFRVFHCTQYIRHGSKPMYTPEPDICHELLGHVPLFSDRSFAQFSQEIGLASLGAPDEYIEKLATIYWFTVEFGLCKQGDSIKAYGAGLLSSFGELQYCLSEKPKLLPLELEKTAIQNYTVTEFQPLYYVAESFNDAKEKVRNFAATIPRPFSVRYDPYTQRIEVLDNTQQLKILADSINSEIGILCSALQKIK
Briefly: Electron paramagnetic resonance spectroscopy. Conditions: ≈100 μM hPAH monomer, equimolar 3HQ, 4K. On the procedure: EPR spectra of hPAH (at ≈100 μM monomer) in the absence or presence of equimolar amounts of 3HQs were recorded at 4K in a Bruker EMX spectrometer (Billerica, MA, USA) equipped with an ESR-900 continuous flow helium cryostat from Oxford Instruments (Abingdon, Johnson, UK). Spectra were recorded for control samples containing 100 μM FeCl3 solutions incubated with equimolar amounts of 3HQs to evaluate direct binding of the compounds to free Fe^3+ in solution. Microwave frequency: 9.39 GHz; microwave power, 2 mW; modulation amplitude, 1 mT.

For assay [2], the target named is T2, human phenylalanine hydroxylase (hPAH) (Homo sapiens, UniProt P00439).
T2 construct: Recombinant full-length wild-type (WT) hPAH was expressed in E. coli Top10 cells in fusion with a hexa-histidyl peptide; made in house; host or cells: E. coli Top10
T2 sequence (P00439 1-452): T1 sequence (P00439 1-452)
The experiment in a line: Steady-state kinetics of hPAH for L-Phe. It counts as biochemical. As to conditions: 100 μM 3HQ; for S0.5 (L-Phe concentration at half-maximal activity) / h (Hill coefficient) / ki (substrate inhibition): 75 μM BH4, 25 °C; for S0.5 (L-Phe concentration at half-maximal activity): Km for compounds 3 and 11 (Michaelis–Menten fits); for Vmax: 75 μM BH4, L-Phe 25 μM to 2.5 mM, 25 °C; for Activation Ratio (L-Phe activation): 100 μM substrate; for kcat/S0.5 (catalytic efficiency): calculated with hPAH subunit MM 55 kDa. As to the method:
The hPAH activity was measured essentially as previously described. Briefly, the enzymatic reaction was performed in a 200 μL final volume, containing 250 mM Na-HEPES, pH 7, 0.1 mg/mL catalase (Sigma-Aldrich; St. Louis, MO, USA), 5 μg (final concentration of 0.112 μM of tetramer) of recombinant hPAH tetramers and 100 μM (NH4)2Fe(II)SO4. Using 100 μM L-Phe and 100 μM of tested compound, three experimental conditions were used to study the compounds’ modulatory effect, namely: non activated (NA), 3HQ-activated (3HQ-A) and substrate/3HQ-activated (Phe/3HQ-A) (Supplementary Figure S3). The reaction was started by addition of 75 μM BH4 (Schircks Laboratories; Bauma, Switzerland) prepared in 5 mM ascorbic acid. In the NA assay, the L-Phe substrate and tested compounds were added together with 75 µM BH4 at the start of the hydroxylation reaction. In the 3HQ-A condition, hPAH was pre-incubated with the tested compound for 4 min at 25 °C and the reaction was started by the addition of BH4 together with L-Phe. In the Phe/3HQ-A condition, hPAH was pre-incubated simultaneously with L-Phe and the tested compound (4 min, 25 °C). Appropriate control reactions were performed where the compounds were omitted and 1% DMSO was used. Kinetic parameters were determined using variable concentrations of L-Phe (25 to 2500 μM) and fixed concentrations of BH4 (75 μM) and tested compound (100 μM). After a 1-min incubation, the reaction was stopped, and the amount of L-Tyr produced was quantified by HPLC as previously described. The specific hPAH enzymatic activity is expressed as nmol of L-Tyr produced during 1 min per mg of protein (nmol L-Tyr.min^−1.mg^−1). The steady-state kinetic data were analyzed by nonlinear regression analysis using GraphPad Prism (La Jolla, CA, USA). Data was fitted to the modified Hill equation accounting for cooperative substrate binding as well as substrate inhibition (Equation (1)), to the modified Michaelis–Menten equation which accounts for substrate inhibition (Equation (2)) and to the non-modified Michaelis–Menten equation:v = (Vmax + Vi ([S]^x/Ki^x))/(1 + (K^h/[S]^h) + ([S]^x/Ki^x))(1) v = (Vmax [S])/(Km + [S](1 + [S]/Ki))(2)

The next assay relates to trypsin. Briefly: Trypsin activity control with Z-Gly-Gly-Arg-AMC. It counts as biochemical. Conditions: 100 μM compound; for relative (residual) trypsin activity: 1% DMSO control = 100%; for Trypsin Abs/min: control 512 ± 11. On the procedure: To rule out compounds that inhibit/inactivate trypsin, changes in the cleavage rate of N-(Benzyloxy)carbonyl-glycylglycylarginyl-7-amido-4-methylcoumarin (Z–Gly–Gly–Arg–AMC; Bachem, Bubendorf, Switzerland), a synthetic substrate of trypsin, were monitored by fluorimetric measurements in a microplate reader (FLUOstar Omega; BMGLabtech, Ortenberg, Germany). The assays (n = 3) were performed in a 96-well plate, in SEC buffer and in a final volume of 200 μL containing 1.5 μg/mL of trypsin, 50 μM of Z–Gly–Gly–Arg–AMC and 100 μM of 3HQs derivatives. Fluorescence was measured in real-time, with λexc 360 nm and λem 460 nm, during 30 min at 25 °C. Controls were performed using substrate alone with 1% DMSO (negative control) and trypsin with no compounds and 1% DMSO (positive control).

“Also recorded” adds a separate entry of the source.

On to `CCOC(=O)[C@H](Cc1ccccc1)NC(=O)c1c(O)c(=O)[nH]c2ccc(OC(F)(F)F)cc12` [Compound 3], for which the “change of hPAH EPR spectrum” value in assay [1] is recorded as “significant increase in the intensity of this main band at g = 4.25”. Besides, in assay [2], the “effect on hPAH kinetic behaviour” value is recorded as “weak competitive inhibitors; also recorded: loss of cooperativity”, the “S0.5 (L-Phe concentration at half-maximal activity)” value is 206 ± 99 µM, the Vmax is recorded as 4.82 ± 0.64 10^3 nmol Tyr.min^−1.mg^−1 and the “Activation Ratio (L-Phe activation)” value was determined as 1.3. Also, the “kcat/S0.5 (catalytic efficiency)” value in assay [2] was 21700 M⁻¹ s⁻¹. Further, in the assay with trypsin, the “relative (residual) trypsin activity” value was found to be 79% and the “Trypsin Abs/min” value came out at 403 ± 12 Abs/min.

As to `COC(=O)CC[C@H](NC(=O)c1c(O)c(=O)[nH]c2ccc(OC(F)(F)F)cc12)C(=O)OC` [Compound 9], the “change of hPAH EPR spectrum” value in assay [1] is given as “less rhombic EPR signals appeared”. In addition, in assay [2], the “h (Hill coefficient)” value is 1.9 ± 0.8, the “ki (substrate inhibition)” value turned out to be 23.3 ± 0.5 mM, the “S0.5 (L-Phe concentration at half-maximal activity)” value amounted to 108 ± 34 µM and the Vmax is 3.94 ± 0.64 10^3 nmol Tyr.min^−1.mg^−1. Besides, in assay [2], the “Activation Ratio (L-Phe activation)” value stood at 1.4 and the “kcat/S0.5 (catalytic efficiency)” value was 33300 M⁻¹ s⁻¹. In the assay with trypsin, the “relative (residual) trypsin activity” value is 71% and the “Trypsin Abs/min” value was found to be 362 ± 9 Abs/min.

Turning to `COC(=O)CNC(=O)c1c(O)c(=O)[nH]c2ccc(OC(F)(F)F)cc12` [Compound 11], the “change of hPAH EPR spectrum” value in assay [1] is on record as “less rhombic EPR signals appeared”. Also, in assay [2], the “effect on hPAH kinetic behaviour” value is recorded as “loss of cooperativity”, the “ki (substrate inhibition)” value is on record as 2.5 ± 0.3 mM, the “S0.5 (L-Phe concentration at half-maximal activity)” value was found to be 386 ± 97 µM and the Vmax is reported as 7.75 ± 1.23 ** 10^3 nmol Tyr.min^−1.mg^−1. Moreover, the “Activation Ratio (L-Phe activation)” value in assay [2] was 1.5. Besides, in the assay with trypsin, the “relative (residual) trypsin activity” value worked out at 92% and the “Trypsin Abs/min” value is reported as 470 ± 11 Abs/min.

Take `O=C(NCCc1ccccc1)c1c(O)c(=O)[nH]c2ccc(OC(F)(F)F)cc12` [Compound 8]: in assay [1], the “change of hPAH EPR spectrum” value is “less rhombic EPR signals appeared”. Moreover, in assay [2], the “effect on hPAH kinetic behaviour” value is recorded as “weak competitive inhibitors”, the “h (Hill coefficient)” value is on record as 1.2 ± 0.3, the “ki (substrate inhibition)” value was found to be 7.2 ± 0.2 mM and the “S0.5 (L-Phe concentration at half-maximal activity)” value is reported as 115 ± 9 µM. For the same compound, in assay [2], the Vmax is on record as 4.38 ± 0.94 10^3 nmol Tyr.min^−1.mg^−1, the “Activation Ratio (L-Phe activation)” value was determined as 1.7 and the “kcat/S0.5 (catalytic efficiency)” value was 35000 M⁻¹ s⁻¹. In the assay on trypsin, the “relative (residual) trypsin activity” value amounted to 62% and the “Trypsin Abs/min” value was found to be 319 ± 7 Abs/min.
